Consider four molecules from patent publication US20100273814A1, “((PHENYL)IMIDAZOLYL)METHYLHETEROARYL COMPOUNDS” (priority 2007, published 2010).

Some results are limits rather than exact numbers.

The target of one assay is T1, alpha2A receptor (Homo sapiens, UniProt P08913).
T1 construct: expressed in transfected cells; host or cells: NIH-3T3 cells
T1 sequence (P08913 1-465): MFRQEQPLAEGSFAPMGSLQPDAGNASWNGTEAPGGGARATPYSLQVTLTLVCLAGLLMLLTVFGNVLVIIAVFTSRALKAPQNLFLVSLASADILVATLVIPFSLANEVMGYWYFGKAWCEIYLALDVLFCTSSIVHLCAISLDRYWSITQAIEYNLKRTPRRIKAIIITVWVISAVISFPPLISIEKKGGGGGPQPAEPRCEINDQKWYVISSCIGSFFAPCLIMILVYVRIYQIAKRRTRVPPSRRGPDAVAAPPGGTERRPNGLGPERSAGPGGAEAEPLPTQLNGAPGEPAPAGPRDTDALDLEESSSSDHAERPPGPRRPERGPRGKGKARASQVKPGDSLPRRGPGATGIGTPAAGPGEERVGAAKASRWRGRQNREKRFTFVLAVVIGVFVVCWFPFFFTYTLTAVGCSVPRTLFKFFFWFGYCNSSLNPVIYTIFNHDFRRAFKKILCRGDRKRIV
Put plainly: Receptor Selection and Amplification Technology (RSAT) assay, alpha2A. Type of assay: cell-based. Particulars: RSAT, transfected NIH-3T3 cells; value outside brackets; read-out: Alpha 2A EC50 (potency). Here is the method: (§1) Receptor Selection and Amplification Technology (RSAT) Assay
(§2) The RSAT assay measures a receptor-mediated loss of contact inhibition that results in selective proliferation of receptor-containing cells in a mixed population of confluent cells. The increase in cell number is assessed with an appropriate transfected marker gene such as β-galactosidase, the activity of which can be easily measured in a 96-well format. Receptors that activate the G protein, Gq, elicit this response. Alpha2 receptors, which normally couple to Gi, activate the RSAT response when coexpressed with a hybrid Gq protein that has a Gi receptor recognition domain, called Gq/i5.
(§3) NIH-3T3 cells are plated at a density of 2×10^6 cells in 15 cm dishes and maintained in Dulbecco's modified Eagle's medium supplemented with 10% calf serum. One day later, cells are cotransfected by calcium phosphate precipitation with mammalian expression plasmids encoding p-SV-β-galactosidase (5-10 μg), receptor (1-2 μg) and G protein (1-2 μg). 40 μg salmon sperm DNA may also be included in the transfection mixture. Fresh media is added on the following day and 1-2 days later, cells are harvested and frozen in 50 assay aliquots. Cells are thawed and […] added to 100 aliquots of various concentrations of drugs in triplicate in 96-well dishes. Incubations continue 72-96 hr at 37° C. After washing with phosphate-buffered saline, β-galactosidase enzyme activity is determined by adding 200 μl of the chromogenic substrate (consisting of 3.5 mM o-nitrophenyl-β-D-galactopyranoside and 0.5% nonidet P-40 in phosphate buffered saline), incubating overnight at 30° C. and measuring optical density at 420 nm. The absorbance is a measure of enzyme activity, which depends on cell number and reflects a receptor-mediated cell proliferation. The efficacy or intrinsic activity is calculated as a ratio of the maximal effect of the drug to the maximal effect of a standard full agonist for each receptor subtype. Brimonidine, also called UK14304, the chemical structure of which is shown below, is used as the standard agonist for the alpha2A, alpha2B and alpha2C receptors. The EC50 is the concentration at which the drug effect is half of its maximal effect.
(§4) EC50 values are nanomolar. ND stands for “not determinable” at concentrations less than 10 micromolar. IA stands for “intrinsic activity.”
With `Fc1cccc(C(c2ccncc2)c2c[nH]cn2)c1F` (stereo not drawn) [4-((2,3-difluorophenyl)(1H-imidazol-5-yl)methyl)pyridine], the EC50 is greater than 10000 nM.

With `c1ccc(C(c2ccncc2)c2c[nH]cn2)cc1` (stereo not drawn) [4-((phenyl)(1H-imidazol-5-yl)methyl)pyridine], the EC50 is greater than 10000 nM.

Turning to `Fc1cccc(C(c2ccccn2)c2c[nH]cn2)c1F` (stereo not drawn) [2-((2,3-difluorophenyl)(1H-imidazol-5-yl)methyl)pyridine], the concentration giving a half-maximal response (EC50) is greater than 10000 nM.

On to `Fc1c(C(c2ccncc2)c2c[nH]cn2)cccc1C(F)(F)F` (stereo not drawn) [4-((2-fluoro-3-(trifluoromethyl)phenyl)(1H-imidazol-5-yl)methyl)pyridine], for which the EC50 was greater than 10000 nM.

The same assay, now with this note: RSAT; ratio of maximal effect to that of standard full agonist brimonidine (UK14304); value in brackets.
As for `Fc1cccc(C(c2ccncc2)c2c[nH]cn2)c1F` (stereo not drawn) [4-((2,3-difluorophenyl)(1H-imidazol-5-yl)methyl)pyridine], the “Alpha 2A intrinsic activity (efficacy)” value is on record as 0.01.

On to `c1ccc(C(c2ccncc2)c2c[nH]cn2)cc1` (stereo not drawn) [4-((phenyl)(1H-imidazol-5-yl)methyl)pyridine], for which the “Alpha 2A intrinsic activity (efficacy)” value was 0.10.

`Fc1cccc(C(c2ccccn2)c2c[nH]cn2)c1F` (stereo not drawn) [2-((2,3-difluorophenyl)(1H-imidazol-5-yl)methyl)pyridine]: the “Alpha 2A intrinsic activity (efficacy)” value amounted to 0.05.

On to `Fc1c(C(c2ccncc2)c2c[nH]cn2)cccc1C(F)(F)F` (stereo not drawn) [4-((2-fluoro-3-(trifluoromethyl)phenyl)(1H-imidazol-5-yl)methyl)pyridine], for which the “Alpha 2A intrinsic activity (efficacy)” value stood at 0.14.

The target of another assay is T2, alpha2B receptor (Homo sapiens, UniProt P18089).
T2 construct: expressed in transfected cells; host or cells: NIH-3T3 cells
T2 sequence (P18089 1-450): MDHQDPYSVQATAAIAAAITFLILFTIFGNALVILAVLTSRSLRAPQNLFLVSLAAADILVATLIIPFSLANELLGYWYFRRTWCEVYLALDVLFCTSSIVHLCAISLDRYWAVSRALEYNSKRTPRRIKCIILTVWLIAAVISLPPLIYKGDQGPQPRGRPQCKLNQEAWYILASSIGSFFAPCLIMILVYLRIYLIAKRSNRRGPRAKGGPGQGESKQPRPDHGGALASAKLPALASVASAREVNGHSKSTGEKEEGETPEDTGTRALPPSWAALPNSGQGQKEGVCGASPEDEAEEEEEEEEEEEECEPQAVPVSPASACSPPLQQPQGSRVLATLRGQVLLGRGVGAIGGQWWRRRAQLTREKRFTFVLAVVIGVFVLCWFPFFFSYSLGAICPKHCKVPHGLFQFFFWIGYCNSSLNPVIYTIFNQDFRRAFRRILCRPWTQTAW
Put plainly: Receptor Selection and Amplification Technology (RSAT) assay, alpha2B. The assay is classed as cell-based. Conditions: RSAT, transfected NIH-3T3 cells; value outside brackets; read-out: Alpha 2B EC50 (potency). On the procedure: as §1, §2, §3, §4
`Fc1cccc(C(c2ccncc2)c2c[nH]cn2)c1F` (stereo not drawn) [4-((2,3-difluorophenyl)(1H-imidazol-5-yl)methyl)pyridine]: the EC50 worked out at 837 nM.

In the case of `c1ccc(C(c2ccncc2)c2c[nH]cn2)cc1` (stereo not drawn) [4-((phenyl)(1H-imidazol-5-yl)methyl)pyridine], the EC50 came to 309 nM.

`Fc1cccc(C(c2ccccn2)c2c[nH]cn2)c1F` (stereo not drawn) [2-((2,3-difluorophenyl)(1H-imidazol-5-yl)methyl)pyridine]: the concentration giving a half-maximal response (EC50) worked out at 405 nM.

On to `Fc1c(C(c2ccncc2)c2c[nH]cn2)cccc1C(F)(F)F` (stereo not drawn) [4-((2-fluoro-3-(trifluoromethyl)phenyl)(1H-imidazol-5-yl)methyl)pyridine], for which the EC50 is 45 nM.

Staying with this assay, now noted: RSAT; ratio of maximal effect to that of standard full agonist brimonidine (UK14304); value in brackets.
`Fc1cccc(C(c2ccncc2)c2c[nH]cn2)c1F` (stereo not drawn) [4-((2,3-difluorophenyl)(1H-imidazol-5-yl)methyl)pyridine]: the “Alpha 2B intrinsic activity (efficacy)” value is recorded as 0.70.

`c1ccc(C(c2ccncc2)c2c[nH]cn2)cc1` (stereo not drawn) [4-((phenyl)(1H-imidazol-5-yl)methyl)pyridine]: the “Alpha 2B intrinsic activity (efficacy)” value is listed as 0.69.

Turning to `Fc1cccc(C(c2ccccn2)c2c[nH]cn2)c1F` (stereo not drawn) [2-((2,3-difluorophenyl)(1H-imidazol-5-yl)methyl)pyridine], the “Alpha 2B intrinsic activity (efficacy)” value came to 1.08.

Regarding `Fc1c(C(c2ccncc2)c2c[nH]cn2)cccc1C(F)(F)F` (stereo not drawn) [4-((2-fluoro-3-(trifluoromethyl)phenyl)(1H-imidazol-5-yl)methyl)pyridine], the “Alpha 2B intrinsic activity (efficacy)” value is recorded as 1.29.

A further assay concerns the target T3, alpha2C receptor (Homo sapiens, UniProt P18825).
T3 construct: expressed in transfected cells; host or cells: NIH-3T3 cells
T3 sequence (P18825 1-462): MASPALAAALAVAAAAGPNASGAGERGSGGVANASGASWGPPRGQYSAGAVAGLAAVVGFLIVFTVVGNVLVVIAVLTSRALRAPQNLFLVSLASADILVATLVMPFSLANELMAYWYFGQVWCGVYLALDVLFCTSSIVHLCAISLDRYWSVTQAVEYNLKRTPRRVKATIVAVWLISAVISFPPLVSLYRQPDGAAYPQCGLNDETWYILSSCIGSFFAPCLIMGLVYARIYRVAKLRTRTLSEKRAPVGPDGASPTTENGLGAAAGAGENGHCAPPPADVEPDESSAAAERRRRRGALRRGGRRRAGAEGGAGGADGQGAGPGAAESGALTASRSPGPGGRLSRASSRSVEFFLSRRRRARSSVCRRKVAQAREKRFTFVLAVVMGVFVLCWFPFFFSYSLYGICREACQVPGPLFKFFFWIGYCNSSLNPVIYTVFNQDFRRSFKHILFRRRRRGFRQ
Put plainly: Receptor Selection and Amplification Technology (RSAT) assay, alpha2C. Particulars: RSAT, transfected NIH-3T3 cells; value outside brackets; read-out: Alpha 2C EC50 (potency). Type of assay: cell-based. Here is the method:
as §1, §2, §3, §4
On to `Fc1cccc(C(c2ccncc2)c2c[nH]cn2)c1F` (stereo not drawn) [4-((2,3-difluorophenyl)(1H-imidazol-5-yl)methyl)pyridine], for which the EC50 was determined as 2490 nM.

For the molecule `c1ccc(C(c2ccncc2)c2c[nH]cn2)cc1` (stereo not drawn) [4-((phenyl)(1H-imidazol-5-yl)methyl)pyridine], the EC50 is greater than 10000 nM.

Turning to `Fc1cccc(C(c2ccccn2)c2c[nH]cn2)c1F` (stereo not drawn) [2-((2,3-difluorophenyl)(1H-imidazol-5-yl)methyl)pyridine], the half-maximal effective concentration (EC50) was greater than 10000 nM.

In the case of `Fc1c(C(c2ccncc2)c2c[nH]cn2)cccc1C(F)(F)F` (stereo not drawn) [4-((2-fluoro-3-(trifluoromethyl)phenyl)(1H-imidazol-5-yl)methyl)pyridine], the concentration giving a half-maximal response (EC50) was greater than 10000 nM.

The assay is the same for the next values; noted with them: RSAT; ratio of maximal effect to that of standard full agonist brimonidine (UK14304); value in brackets.
For the molecule `Fc1cccc(C(c2ccncc2)c2c[nH]cn2)c1F` (stereo not drawn) [4-((2,3-difluorophenyl)(1H-imidazol-5-yl)methyl)pyridine], the “Alpha 2C intrinsic activity (efficacy)” value came out at 1.02.

Consider `c1ccc(C(c2ccncc2)c2c[nH]cn2)cc1` (stereo not drawn) [4-((phenyl)(1H-imidazol-5-yl)methyl)pyridine], for which the “Alpha 2C intrinsic activity (efficacy)” value is 0.14.

`Fc1cccc(C(c2ccccn2)c2c[nH]cn2)c1F` (stereo not drawn) [2-((2,3-difluorophenyl)(1H-imidazol-5-yl)methyl)pyridine]: the “Alpha 2C intrinsic activity (efficacy)” value is recorded as 0.16.

For the molecule `Fc1c(C(c2ccncc2)c2c[nH]cn2)cccc1C(F)(F)F` (stereo not drawn) [4-((2-fluoro-3-(trifluoromethyl)phenyl)(1H-imidazol-5-yl)methyl)pyridine], the “Alpha 2C intrinsic activity (efficacy)” value stood at 0.29.

For orientation: EC50 means the concentration needed to bring the measured effect to its halfway point.
